Like-named read-outs stand apart in the source and are kept apart here. Where a SMILES comes first, the peptide text is derived from it.
Key:
[1] = tested on: HMEC (normal human mammary epithelial cells); settings: read-out: EC50 value; treated in HMEC media, 24 h; mean ± S.D.
Protocol: (§1) Cells were plated into a 96-well plate (5,000 to 10,000 cells per well) in full growth media. The following day, media is exchanged for serum starved media (0.1% BSA in growth media without FBS) and incubated overnight. Cells were treated for 24 hours with peptides at varying concentrations range (0.78 to 200 µM). The cell viability is read using luminescent cell viability dye (CellTiter-Glo, Promega Corporation, USA) by adding 20 µL of dye to each well containing 100 µL of treated media. The cell viability is calculated by dividing each luminescent reading by the average of the luminescent readings for control, untreated cells. Assays are run in triplicate. Dose-response curves were generated and fitted in Prism 5.0 (GraphPad Software, Inc., USA). The EC50 values were generated using the log inhibitor-normalized response variable slope function (Y = 100/(1+10∧((LogEC50-X)*HillSlope)). EC50 values are shown with standard deviation values (S.D.) from at least three independent experiments. For comparison of MDA-MB-231 with HMEC, the cells were not serum starved and plated and treated in HMEC media.

[2] = tested on: NR6 cells (EGFR null clone of NIH/3T3 fibroblasts); settings: read-out: EC50 value; serum starved overnight, 24 h treatment; mean ± S.D. of two to three independent experiments
Protocol: as §1

[3] = tested on: IMR-90 normal lung fibroblasts; settings: serum starved overnight, 24 h treatment; mean ± S.D.
Protocol: as §1

A-549 cells = settings: read-out: EC50 value; serum starved overnight, 24 h treatment; mean ± S.D. of two to three independent experiments
Protocol: as §1

[4] = tested on: EGFR dimerization in MDA-MB-231 cells; experiment: EGFR dimer detection, BS3 cross-linking and Western blot; assay type: cell-based, human; settings: 25 µM, 30 minutes; reduction in the loading control (Stat3)
Protocol: Cells were plated in 10-cm dishes, grown to 80% confluence, serum starved overnight, treated and analyzed. For dose response assays, the peptides, EGFR-specific tyrosine kinase inhibitor (TKI) or control was added to each plate and incubated at 37°C for 30 minutes, followed by EGF (10 ng/mL) for an additional 10 minutes at 37°C. For timecourses, TE-64562 and/or EGF were added and the cells were incubated at 37°C for the indicated amounts of time. For EGFR dimer detection, cells were cross-linked after treatment using BS^3 crosslinker (bis[sulfosuccinimidyl] suberate, Thermo scientific, Inc) according to the manufacturer’s instructions. Immediately following treatment, cells were put on ice, washed twice with cold Tris-buffered saline (TBS, pH 7.4) and lysed with radio-immunoprecipitation buffer (50 mM Tris pH 7.5, 100 mM NaCl, 1% NP-40, 0.5% deoxycholate, 0.1% SDS, 1 mM EDTA and protease inhibitor cocktail). After protein concentration determination, cell lysates were analyzed by Western blot analysis with the indicated antibodies following standard procedures and visualized by chemiluminescence. Images were quantified using ImageJ Version 1.43 u.

MDA-MB-231 cells [5] = experiment: Cellular entry of FAM-labeled peptides, live-cell fluorescent confocal microscopy; assay type: cell-based, human; settings: N-terminally FAM-labeled peptide, 2.5 µM, serum starved cells in HBSS, live-cell confocal fluorescence
Protocol: MDA-MB-231 cells (1×10^5 cells per plate) were plated on 35 mm glass-bottom plates (MatTek Corporation, Ashland, MA), allowed to adhere overnight, then serum starved overnight and analyzed the following day in HBSS (Hank’s balanced salt solution). For real-time uptake of the FAM-labeled peptides, after recording background images, the FAM-labeled peptides were added and cells were imaged every two minutes over approximately 30 minutes. After 30 minutes, images were taken less frequently. Images from representative timepoints are shown. For overnight treatment, the cells were treated in serum-starved media, exchanged into HBSS the following day and imaged.

MDA-MB-231 cells [6] = experiment: Cell viability assay (CellTiter-Glo); assay type: cell-based, human
Text: Assays are run in triplicate.

[7] = tested on: MDA-MB-231 xenograft tumors; experiment: MDA-MB-231 xenografts in nude mice; assay type: in vivo
Protocol: NCR-nude female athymic mice were purchased from Taconic Farms, Inc. Mice were injected in the flank region with 1.5×10^6 MDA-MB-231 cells, while anesthetized with ketamine and xylazine. Prior to treatment, tumors were measured in three dimensions using a caliper and tumor volume was calculated by multiplying the three measured dimensions by 0.5 (V = 0.5*l*w*h). Once the tumors reached a minimum size of 100 mm^3, mice were injected intraperitoneally, twice a week, with 200 µL of the TE-64562 peptide (40 mg/kg; 7 µmol/kg), Tat peptide in PBS (20 mg/kg; 7 µmol/kg) or PBS. Endpoints were defined as the tumor size reaching 2000 mm^3 or 20 mm in any dimension, significant weight loss occurring or if the mouse appearing unhealthy according to body conditioning scoring standards. For histological analysis, organs were collected post-sacrifice and fixed in 4% formaldehyde in PBS, followed by paraffin embedding. Sections (6 µm thick) were mounted onto positively charged slides and H&E stained. Images were captured at 20× resolution on a Zeiss Axioplan 2 microscope.

CC[C@H](C)[C@H](NC(=O)[C@H](Cc1c[nH]cn1)NC(=O)[C@H](CCCNC(=N)N)NC(=O)[C@H](CCCNC(=N)N)NC(=O)[C@H](CCCNC(=N)N)NC(=O)CNC(=O)[C@H](CCCNC(=N)N)NC(=O)[C@H](CCCNC(=N)N)NC(=O)[C@H](CCCNC(=N)N)NC(=O)[C@H](CCC(N)=O)NC(=O)[C@H](CCCNC(=N)N)NC(=O)[C@H](CCCNC(=N)N)NC(=O)[C@H](CCCCN)NC(=O)[C@H](CCCCN)NC(=O)[C@@H](N)CCCNC(=N)N)C(=O)N[C@H](C(=O)N[C@@H](CCCNC(=N)N)C(=O)N[C@@H](CCCCN)C(=O)N[C@@H](CCCNC(=N)N)C(=O)N[C@H](C(=O)N[C@@H](CC(C)C)C(=O)N[C@@H](CCCNC(=N)N)C(=O)N[C@@H](CCCNC(=N)N)C(=O)N[C@@H](CC(C)C)C(=O)N[C@@H](CC(C)C)C(=O)N[C@@H](CCC(N)=O)C(=O)N[C@@H](CCC(=O)O)C(=O)N[C@@H](CCCNC(=N)N)C(=O)O)[C@@H](C)O)C(C)C [TE-64562] (H-RKKRRQRRRGRRRHIVRKRTLRRLLQER-OH)
EC50 [1]: 38.4 ± 6.1 µM
EC50 [2]: 104 ± 9 µM
EC50 [3]: 174 ± 54 µM
EC50 (A-549 cells): 6.1 ± 0.9 µM
toxicity to the cells in the dimerization experiment [4]: fairly toxic to the cells
time until peptide entered cells (MDA-MB-231 cells [5]): approximately 10 minutes
EC50 (MDA-MB-231 cells [6]; cells not serum starved, plated and treated in HMEC media, 24 h, mean ± S.D., read-out: EC50): 7.4 ± 1.9 µM
EC50 (MDA-MB-231 cells [6]; serum starved overnight (0.1% BSA, no FBS), 24 h treatment, CellTiter-Glo, mean ± S.D. of at least three independent experiments, read-out: EC50± S.D.): 12.6 ± 2.3 µM
toxicity in vivo ([7]; 40 mg/kg intraperitoneally bi-weekly): does not show any significant non-selective toxicity in vivo
body weight over the course of the study ([7]; 40 mg/kg intraperitoneally bi-weekly, versus Tat and saline groups): No significant difference in body weight
histological examination of post-treatment liver, spleen and kidney ([7]; end of 5 weeks of treatment, H&E): No differences between the treatment groups

From paper PMC3499488, “A Potential Peptide Therapeutic Derived from the Juxtamembrane Domain of the Epidermal Growth Factor Receptor” (PLoS ONE, 2012)
